Molecular target: T1, bovine serum albumin (BSA) (Bos taurus, UniProt P02769)
T1 construct: gene ALB
Experiment: BSA intrinsic fluorescence quenching titration (Stern-Volmer; λex = […] nm, […] BSA), supported by chlorin fluorescence increase and DLS
Assay type: binding
Details: read-out: BSA intrinsic fluorescence quenching titration (Stern-Volmer); λex = 290 nm, 5 μM (converted)

T1 sequence (P02769 25-607): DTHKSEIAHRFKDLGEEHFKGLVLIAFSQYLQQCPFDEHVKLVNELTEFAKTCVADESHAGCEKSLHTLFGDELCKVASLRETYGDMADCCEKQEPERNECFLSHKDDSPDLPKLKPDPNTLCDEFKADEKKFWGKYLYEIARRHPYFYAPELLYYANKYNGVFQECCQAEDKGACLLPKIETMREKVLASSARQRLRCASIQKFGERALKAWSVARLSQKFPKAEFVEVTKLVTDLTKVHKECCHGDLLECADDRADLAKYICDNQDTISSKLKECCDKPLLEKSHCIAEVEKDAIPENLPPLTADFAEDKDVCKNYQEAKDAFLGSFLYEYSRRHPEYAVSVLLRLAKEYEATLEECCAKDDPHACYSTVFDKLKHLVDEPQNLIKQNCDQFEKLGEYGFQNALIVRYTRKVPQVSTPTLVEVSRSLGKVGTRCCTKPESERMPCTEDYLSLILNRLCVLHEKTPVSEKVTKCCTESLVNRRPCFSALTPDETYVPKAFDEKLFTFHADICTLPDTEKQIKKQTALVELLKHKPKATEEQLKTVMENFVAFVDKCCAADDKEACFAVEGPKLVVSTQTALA

CCC1=C(C)c2cc3[nH]c(cc4nc(c(CC(=O)OC)c5[nH]c(cc1n2)c(C)c5C(=O)NC)[C@@H](CCC(=O)OC/C=C(\C)CCCC(C)CCCC(C)CCCC(C)C)[C@@H]4C)c(C)c3C(=CC[N+](C)(C)C)C[N+](C)(C)C (mixture of isomers) [compound 1, 3(1),3(2)-bis(N,N,N-trimethylaminomethyliodide) chlorin e6 13(1)-N-methylamide-15(2)-methyl,17(3)-phytyl ester]
Kd: 2740 nM

Reference: article PMC9820311, “Characterization of a Novel Amphiphilic Cationic Chlorin Photosensitizer for Photodynamic Applications” (International Journal of Molecular Sciences, 2022)
